Article PMC6751662, “Pharmacological and functional similarities of the human neuropeptide Y system in C. elegans challenges phylogenetic views on the FLP/NPR system” (Cell Communication and Signaling : CCS, 2019)
Like-named read-outs stand apart in the source and are kept apart here. Ends that are not written are not given here.

What was measured:
Assay type in all cases: cell-based, C. elegans
NPR-3 = target: T1, NPR-3 (Caenorhabditis elegans, UniProt P90745); test: cAMP reporter gene assay, Gi/o (inhibition of forskolin-induced cAMP), NPR-3; conditions: for cAMP, x-fold of forskolin (mean), NPR-3: 1 µM forskolin set to 1.00; for cAMP, x-fold of forskolin (mean), NPR-3 / Gi (Gs) [x-fold of forskolin], NPR-3, mean: transiently transfected HEK293 cells, mean of at least three independent experiments; for cAMP assay Gi, NPR-3: 4 h, lower = higher Gi/o activity, transfected HEK293, CRE-luciferase, mean of >=3 independent experiments; for Gi (Gs) [x-fold of forskolin], NPR-3, mean: inhibition of cAMP production induced by 1 µM forskolin (set to 1.00)
T1 construct: expressed in transfected cells; host or cells: HEK293
T1 sequence (P90745 1-376): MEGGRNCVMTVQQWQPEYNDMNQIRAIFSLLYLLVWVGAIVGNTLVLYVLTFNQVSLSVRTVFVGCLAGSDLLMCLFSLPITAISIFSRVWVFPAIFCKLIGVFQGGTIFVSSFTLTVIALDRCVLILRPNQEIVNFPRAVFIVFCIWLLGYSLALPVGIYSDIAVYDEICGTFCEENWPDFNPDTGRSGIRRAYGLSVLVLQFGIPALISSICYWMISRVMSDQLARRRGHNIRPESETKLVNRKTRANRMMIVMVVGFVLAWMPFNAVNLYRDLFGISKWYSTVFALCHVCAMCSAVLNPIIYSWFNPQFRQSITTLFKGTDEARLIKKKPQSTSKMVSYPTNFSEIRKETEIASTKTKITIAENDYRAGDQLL
Procedure: (§1) Activation of Gs and Gi/o was assessed with a cAMP reporter gene assay. HEK293 cells grown to 70–80% confluency in 6-well plates were transiently co-transfected with vectors encoding the receptor and the cAMP reporter gene plasmid pGL4.29 [luc2P/CRE/Hygro] (Promega; 4 μg total, 1:1 ratio) using Metafectene Pro (3 μl/μg DNA; Biontex) following the manufacturer’s instructions. 16 h post transfection, the cells were seeded into white 384-well plates at a density of 20,000 cells/well. On the next day, the medium was removed and the cells were stimulated with 20 μl of peptide solution (or forskolin as positive control) in serum-free DMEM for 4 h. For measuring Gi/o activity, the peptide solutions additionally contained 1 μM forskolin to elevate cellular cAMP levels. After incubation, the luciferase substrate OneGlo in lysis buffer (Promega) was added and the luminescence was measured in a microplate reader Tecan Spark (Tecan). Data were analyzed with GraphPad Prism 5.03 and are shown as fold of basal or fold of forskolin in case of Gαi/o activity.
(§2) For in vitro activation, data is presented as mean ± SEM of at least three independent experiments conducted in technical triplicate. […] For the C. elegans NPRs, we considered the strongest response elicited by any of the peptides downstream of a particular receptor as the receptor’s maximal signal. This may or may not be the biological maximum that can be reached by the ‘true’ endogenous agonist. For the human receptors, the response to the established endogenous agonist reflected the maximal signal.

NPR-5b = target: T2, NPR-5b (Caenorhabditis elegans, UniProt Q6F3C9); test: cAMP reporter gene assay, Gi/o (with forskolin), NPR-5b; set-up: Emax: unit not given here; conditions: for cAMP, x-fold of forskolin (mean), NPR-5b: 1 µM forskolin set to 1.00, values > 1 = cAMP stimulation; for cAMP, x-fold of forskolin (mean), NPR-5b / Gi (Gs) [x-fold of forskolin], NPR-5b, mean: mean of at least three independent experiments; for cAMP assay Gi, NPR-5b: 4 h, transfected HEK293, CRE-luciferase, increase consistent with Gs coupling, mean of >=3 independent experiments; for Gi (Gs) [x-fold of forskolin], NPR-5b, mean: with 1 µM forskolin (set to 1.00), increase of cellular cAMP consistent with Gs coupling; for Emax: forskolin (1 µM) set to 1.00, increase of cAMP, mean ± SEM of at least three independent experiments, SEM
T2 sequence (Q6F3C9 1-433): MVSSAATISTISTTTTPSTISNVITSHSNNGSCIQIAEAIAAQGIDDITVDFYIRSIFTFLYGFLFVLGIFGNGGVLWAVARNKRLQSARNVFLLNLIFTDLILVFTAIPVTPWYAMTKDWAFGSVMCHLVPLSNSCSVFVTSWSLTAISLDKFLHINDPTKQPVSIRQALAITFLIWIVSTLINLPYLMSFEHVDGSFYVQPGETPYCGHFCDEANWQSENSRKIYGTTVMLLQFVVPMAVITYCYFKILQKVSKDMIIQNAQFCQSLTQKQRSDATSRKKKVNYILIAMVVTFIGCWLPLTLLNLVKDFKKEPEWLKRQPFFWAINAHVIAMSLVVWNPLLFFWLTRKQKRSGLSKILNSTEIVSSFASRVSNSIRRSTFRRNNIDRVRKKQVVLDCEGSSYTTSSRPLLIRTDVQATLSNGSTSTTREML
Procedure: as §1, with “(Tecan).” for “(Tecan). Data were analyzed with GraphPad Prism 5.03 and are shown as fold of basal or fold of forskolin in case of Gαi/o activity.”
as §2

NPR-11 = target: T3, NPR-11 (Caenorhabditis elegans, UniProt Q18179); test: cAMP reporter gene assay, Gi/o (inhibition of forskolin-induced cAMP), NPR-11; conditions: for cAMP, x-fold of forskolin (mean), NPR-11: 1 µM forskolin set to 1.00; for cAMP, x-fold of forskolin (mean), NPR-11 / Gi (Gs) [x-fold of forskolin], NPR-11, mean: transiently transfected HEK293 cells, mean of at least three independent experiments; for cAMP assay Gi, NPR-11: 4 h, lower = higher Gi/o activity, transfected HEK293, CRE-luciferase, mean of >=3 independent experiments; for Gi (Gs) [x-fold of forskolin], NPR-11, mean: inhibition of cAMP production induced by 1 µM forskolin (set to 1.00); for Emax: HEK293, read-out: Emax ± SEM [%]
T3 construct: expressed in transfected cells; host or cells: HEK293, transient
T3 sequence (Q18179 1-402): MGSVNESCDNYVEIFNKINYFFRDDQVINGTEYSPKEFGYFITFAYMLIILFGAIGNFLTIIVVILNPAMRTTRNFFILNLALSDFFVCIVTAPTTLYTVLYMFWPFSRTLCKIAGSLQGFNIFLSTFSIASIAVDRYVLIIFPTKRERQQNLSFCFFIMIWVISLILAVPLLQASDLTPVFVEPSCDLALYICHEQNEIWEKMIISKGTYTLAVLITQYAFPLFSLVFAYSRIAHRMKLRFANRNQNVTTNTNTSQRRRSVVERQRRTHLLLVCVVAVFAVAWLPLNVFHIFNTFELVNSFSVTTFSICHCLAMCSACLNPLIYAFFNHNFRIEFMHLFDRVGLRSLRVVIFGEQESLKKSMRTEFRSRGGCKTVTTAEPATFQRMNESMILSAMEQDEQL
Procedure: as §1, §2

[1] = 0.1 µM peptide, transiently transfected HEK293 cells
[2] = 10 µM peptide, transiently transfected HEK293 cells
[3] = 0.1 µM peptide + 1 µM forskolin (set to 1.00)
[4] = 10 µM peptide + 1 µM forskolin (set to 1.00)
[5] = NPR-5b, transiently transfected HEK293 cells

Substance: ASPSFIRF-NH2 [FLP-4-2, C. elegans FMRFamide-like peptide, C-terminally amidated, synthesized by SPPS]
- cAMP, x-fold of forskolin (mean), NPR-3 (NPR-3; 0.1 µM peptide): 0.94 x-fold of forskolin
- cAMP, x-fold of forskolin (mean), NPR-3 (NPR-3; 10 µM peptide): 0.83 x-fold of forskolin
- cAMP, x-fold of forskolin (mean), NPR-5b (NPR-5b; [1]): 0.90 x-fold of forskolin
- cAMP, x-fold of forskolin (mean), NPR-5b (NPR-5b; [2]): 1.82 x-fold of forskolin
- cAMP, x-fold of forskolin (mean), NPR-11 (NPR-11; 0.1 µM peptide): 0.89 x-fold of forskolin
- cAMP, x-fold of forskolin (mean), NPR-11 (NPR-11; 10 µM peptide): 0.83 x-fold of forskolin

Substance: APKPKFIRF-NH2 [FLP-5-1, C. elegans FMRFamide-like peptide, C-terminally amidated, synthesized by SPPS]
- cAMP assay Gi, NPR-3 (NPR-3; [3]): 0.68 x-fold of forskolin
- cAMP, x-fold of forskolin (mean), NPR-3 (NPR-3; 0.1 µM peptide): 0.66 x-fold of forskolin
- cAMP assay Gi, NPR-3 (NPR-3; [4]): 0.87 x-fold of forskolin
- cAMP, x-fold of forskolin (mean), NPR-3 (NPR-3; 10 µM peptide): 0.86 x-fold of forskolin
- cAMP assay Gi, NPR-5b (NPR-5b; [3]): 0.92 x-fold of forskolin
- cAMP, x-fold of forskolin (mean), NPR-5b (NPR-5b; [1]): 0.91 x-fold of forskolin
- cAMP assay Gi, NPR-5b (NPR-5b; [4]): 1.90 x-fold of forskolin
- cAMP, x-fold of forskolin (mean), NPR-5b (NPR-5b; [2]): 1.96 x-fold of forskolin
- cAMP assay Gi, NPR-11 (NPR-11; [3]): 0.94 x-fold of forskolin
- cAMP, x-fold of forskolin (mean), NPR-11 (NPR-11; 0.1 µM peptide): 0.94 x-fold of forskolin
- cAMP assay Gi, NPR-11 (NPR-11; [4]): 0.51 x-fold of forskolin
- cAMP, x-fold of forskolin (mean), NPR-11 (NPR-11; 10 µM peptide): 0.48 x-fold of forskolin

Substance: GLGPRPLAF-NH2 [[R8A]FLP-21, R8A control peptide of FLP-21, penultimate arginine exchanged for an alanine]
- Gi (Gs) [x-fold of forskolin], NPR-3, mean (NPR-3; 0.1 µM peptide): 1.20 x-fold of forskolin
- Gi (Gs) [x-fold of forskolin], NPR-3, mean (NPR-3; 10 µM peptide): 1.38 x-fold of forskolin
- Gi (Gs) [x-fold of forskolin], NPR-5b, mean (NPR-5b; [1]): 1.06 x-fold of forskolin
- Gi (Gs) [x-fold of forskolin], NPR-5b, mean (NPR-5b; [2]): 0.97 x-fold of forskolin
- Gi (Gs) [x-fold of forskolin], NPR-11, mean (NPR-11; 0.1 µM peptide): 0.87 x-fold of forskolin
- Gi (Gs) [x-fold of forskolin], NPR-11, mean (NPR-11; 10 µM peptide): 0.67 x-fold of forskolin

Substance: RGPSGPLAF-NH2 [[R8A]FLP-15-2]
- Gi (Gs) [x-fold of forskolin], NPR-3, mean (NPR-3; 0.1 µM peptide): 0.97 x-fold of forskolin
- Gi (Gs) [x-fold of forskolin], NPR-3, mean (NPR-3; 10 µM peptide): 0.88 x-fold of forskolin
- Gi (Gs) [x-fold of forskolin], NPR-5b, mean (NPR-5b; [1]): 0.98 x-fold of forskolin
- Gi (Gs) [x-fold of forskolin], NPR-5b, mean (NPR-5b; [2]): 0.93 x-fold of forskolin
- Gi (Gs) [x-fold of forskolin], NPR-11, mean (NPR-11; 0.1 µM peptide): 0.93 x-fold of forskolin
- Gi (Gs) [x-fold of forskolin], NPR-11, mean (NPR-11; 10 µM peptide): 0.53 x-fold of forskolin

Substance: TSGPLGNLAEELNGYSRKKGGFSFRF-NH2 [QRFP26, human pyroglutamylated RFamide peptide, 26 residues, reference compound]
- cAMP, x-fold of forskolin (mean), NPR-3 (NPR-3; 0.1 µM peptide): 0.90 x-fold of forskolin
- cAMP, x-fold of forskolin (mean), NPR-3 (NPR-3; 10 µM peptide): 0.97 x-fold of forskolin
- cAMP, x-fold of forskolin (mean), NPR-5b (NPR-5b; [1]): 0.84 x-fold of forskolin
- cAMP, x-fold of forskolin (mean), NPR-5b (NPR-5b; [2]): 2.19 x-fold of forskolin
- cAMP, x-fold of forskolin (mean), NPR-11 (NPR-11; 0.1 µM peptide): 0.14 x-fold of forskolin
- cAMP, x-fold of forskolin (mean), NPR-11 (NPR-11; 10 µM peptide): 0.06 x-fold of forskolin

Substance: APLEPVYPGDNATPEQMAQYAADLRRYINMLTRPRY-NH2 [PP, human pancreatic polypeptide, reference compound]
- cAMP, x-fold of forskolin (mean), NPR-3 (NPR-3; 0.1 µM peptide): 1.02 x-fold of forskolin
- cAMP, x-fold of forskolin (mean), NPR-3 (NPR-3; 10 µM peptide): 1.25 x-fold of forskolin
- cAMP, x-fold of forskolin (mean), NPR-5b (NPR-5b; [1]): 0.86 x-fold of forskolin
- cAMP, x-fold of forskolin (mean), NPR-5b (NPR-5b; [2]): 0.96 x-fold of forskolin
- cAMP, x-fold of forskolin (mean), NPR-11 (NPR-11; 0.1 µM peptide): 0.37 x-fold of forskolin
- cAMP, x-fold of forskolin (mean), NPR-11 (NPR-11; 10 µM peptide): 0.14 x-fold of forskolin

Substance: AGSDPNFLRF-NH2 [FLP-1-2, C. elegans FMRFamide-like peptide, C-terminally amidated, synthesized by SPPS]
- cAMP, x-fold of forskolin (mean), NPR-3 (NPR-3; 0.1 µM peptide): 0.87 x-fold of forskolin
- cAMP, x-fold of forskolin (mean), NPR-3 (NPR-3; 10 µM peptide): 1.02 x-fold of forskolin
- cAMP, x-fold of forskolin (mean), NPR-5b (NPR-5b; [1]): 1.02 x-fold of forskolin
- cAMP, x-fold of forskolin (mean), NPR-5b (NPR-5b; [2]): 1.72 x-fold of forskolin
- cAMP, x-fold of forskolin (mean), NPR-11 (NPR-11; 0.1 µM peptide): 0.92 x-fold of forskolin
- cAMP, x-fold of forskolin (mean), NPR-11 (NPR-11; 10 µM peptide): 0.72 x-fold of forskolin

Substance: RGPSGPLRF-NH2 [FLP-15-2]
- Emax (NPR-3; HEK293, read-out: Emax ± SEM [%], SEM): -0.8 ± 0.09%
- EC50 (NPR-3; SEM): 50.1 nM
- Emax (NPR-5b; [5]): 3.28 ± 1.7
- EC50 (NPR-5b; NPR-5b, full concentration-response curve, with 1 µM forskolin, increase of cAMP, transiently transfected HEK293 cells, at least three independent experiments): 6650 nM
- EC50 (NPR-11): 998 nM
- Emax (NPR-11; SEM): -0.76 ± 0.11%

Substance: SEVPGVLRF-NH2 [FLP-18-5]
- Emax (NPR-5b; [5]): 3.6 ± 0.22
- Emax (NPR-11; SEM): -0.16 ± 0.08%
- EC50 (NPR-11; SEM): 79.4 nM
